# Measurements published in patent US5053006A, “Method for the permanent occlusion of arteries” (priority 1990, dated 1991).
# Like-named read-outs stand apart in the source and are kept apart here.
# How the values were obtained:
# common carotid artery = experiment: Argon laser photothrombotic occlusion of common carotid artery (Example 1); assay type: in vivo, rat (male Wistar); settings: 514.5 nm argon laser
# Excerpt: Male Wistar rats, each weighing 280 to 330 gm, were anesthetized with 1.5% halothane and maintained on a 70:30 mixture of nitrous oxide and oxygen delivered by a closely fitting Mylar face mask (Watson et al., J. Neurosurg., 66:748-754, 1987, the disclosure of which is hereby incorporated by reference and relied upon). After separation of the temporal musculature, the middle cerebral artery was exposed via a small subtemporal craniectomy produced by a high-speed drill under an operating microscope; the dura was left intact. The common carotid arteries were exposed bilaterally by a midline incision extending from the mental process to the sternal notch; the sternocleidomastoid muscle was then retracted laterally to expose the underlying artery. Bleeding from the operative site was controlled with pressure and Gelfoam. The animal was then prepared for irradiation by filling the surgical cavity with saline, just submerging the exposed blood vessel. The saline solution was kept clear by frequent suction and irrigation. The femoral arteries were exposed by bilateral inguinal incisions and were prepared for irradiation in a fashion similar to that described above.
# As assessed by observation of rose bengal fluorescence, thrombus development in the common carotid or femoral arteries followed a course similar to that observed in the middle cerebral artery, except that the thrombus appeared as a […] as viewed through the blood vessel wall. Intense scattering of the incident laser light was also noted at about the time that arterial pulsations at the level of irradiation ceased.
# Ultrastructural studies were carried out at either 30 minutes or 7 days following irradiation. Animals were perfused transcardially with 0.9% sodium chloride solution followed by 2% paraformaldehyde and 2.5% glutaraldehyde in a 0.1 M sodium phosphate buffer. Perfusion pressure was monitored throughout the procedure and was maintained at 100 mm Hg. After perfusion fixation, the femoral and common carotid arteries were isolated and placed in fixative for an additional 2 hours. […]
# corneal neovasculature = assay type: in vivo, New Zealand albino rabbit
# Excerpt: The corneal and limbal epithelia, along with the conjunctival epithelium 2-3 mm beyond the limbus, were removed from New Zealand albino rabbits by a combination of surgical scraping and n-heptanol debridement. The denuded corneal surfaces were then healed by the remaining conjunctival epithelium, of which 65% contained extensive neovascularization. From this group, 16 corneas with neovascularization persistent for about 20 months were subjected to photothrombotic treatment.
# Isotonic saline solution was used as a control solution.
# After anesthesia with intramuscular injection of xylazine (10 mg/kg bw) and ketamine (10 mg/kg bw), the rabbits were injected intravenously with either 2.5 ml of isotonic saline solution or rose bengal saline solution at a dosage of 40 mg/kg bw. Irradiation of corneal vessels was carried out with an argon ion laser (Model 95, Cooper LaserSonics, Fremont, Calif.) operated at 514.5 nm, as described by Mendelsohn et al. (Arch. Opthalmol., 105:983-988, 1987). The beam focusing apparatus was mounted in an X-Y positioning device attached to a rotary turntable, both with micrometer precision (Daedal, Inc., Harrison City, Pa.). With this apparatus, beam positioning stability and reproducibility of incident intensity were improved because irradiations were administered during the open cycle of the mechanical shutter. The incident power level was set at 200 mW; allowing for reflection losses in the fiber optic focusing system, the incident power was reduced to 130 mW. At the focal point, the laser beam was 63 μm in diameter. Each irradiation was 0.2 second in pulse duration. During the entire procedure, the corneas were continuously rinsed with a balanced salt solution delivered through a peristatic pump and the temperature of the solution was maintained at 37° C. with a water bath. After laser irradiation, topical antibiotics and steroids were applied for two days.
# Routine external photography and corneal fluorescein angiography were performed to document occlusion of the corneal blood vessels and the duration of their occlusion. Angiograms were taken with a ceiling-mounted Zeiss surgical photoscope after injection of 1 ml of 10 mg/ml fluorescein solution. Baseline angiography was performed two or three days before laser irradiation to avoid possible photosensitizing effects from the fluorescein dye used for angiography. After photothrombotic treatment, angiograms were taken on scheduled dates in order to monitor the duration of the occlusive effect. Late phase (5 minutes after injection) fluorescein angiograms were used for comparison.
# Various dosages of rose bengal solution were used to investigate the efficacy of photothrombosis.
# Factor VIII = experiment: Immunofluorescence study of thrombus composition, Factor VIII; parameters: species or system rat
# Procedure: Following incubation with primary antibody for one hour, FITC-conjugated goat anti-mouse IgG and goat anti-mouse IgG antibodies (Sigma Chemical Co., St. Louis, Mo.) were used as secondary antibodies for anti-fibrinogen and anti-Factor VIII, respectively. The sections were observed by epi-illumination with a Nikon Microphot-FX microscope.
# [1] = rabbit, in vivo
# Procedure: In order to investigate possible systemic side effects of rose bengal, the blood chemistry profiles of healthy rabbits before and after intravenous injection of rose bengal were studied. Four practical dosages, i.e., 40, 16, 8 and 4 mg/kg bw, were administered. Five rabbits were used for each dosage except for the dosage of 40 mg/kg bw, in which case ten rabbits were used. Three blood samples (3 ml each) were collected from each rabbit before injection with rose bengal, and one and five days following injection.
# [2] = rabbit, in vivo; cited from earlier work
# [3] = in vivo; cited from earlier work
smiles,measurement,setting,value
O=C([O-])c1c(Cl)c(Cl)c(Cl)c(Cl)c1-c1c2cc(I)c(=O)c(I)c-2oc2c(I)c([O-])c(I)cc12.[Na+].[Na+] [rose bengal],"complete occlusion, irradiation time",common carotid artery; 40 mg/kg i.v.,≤ 3 min
same,energy fluence at occlusion,common carotid artery,about 35 kJ/sq cm
same,total energy deposited at occlusion,common carotid artery,140 to 180 joules (J)
same,Total Laser Shots to Occlude each Vessel,"corneal neovasculature; 4 mg/kg BW i.v., duration 0-10 min, means ± s.d.",33 ± 8
same,Total Laser Shots to Occlude each Vessel,"corneal neovasculature; 4 mg/kg BW i.v., duration 10-20 min, means ± s.d.",53 ± 8
same,Total Laser Shots to Occlude each Vessel,"corneal neovasculature; 4 mg/kg BW i.v., duration 20-30 min, means ± s.d.",81 ± 11
same,Total Laser Shots to Occlude each Vessel,"corneal neovasculature; 4 mg/kg BW i.v., duration 30-40 min",> 100
same,Total Laser Shots to Occlude each Vessel,"corneal neovasculature; 4 mg/kg BW i.v., duration 40-50 min",N.O.
same,Total Laser Shots to Occlude each Vessel,"corneal neovasculature; 4 mg/kg BW i.v., duration 50-60 min",N.O.
same,shots required to occlude blood vessels,corneal neovasculature; 4 mg/kg bw,more than 100 shots
same,time window in which vessels could still be occluded,"corneal neovasculature; 4 mg/kg bw, sufficient shots",≤ 30 min
same,Total Laser Shots to Occlude each Vessel,"corneal neovasculature; 8 mg/kg BW i.v., duration 0-10 min, means ± s.d.",13 ± 4
same,Total Laser Shots to Occlude each Vessel,"corneal neovasculature; 8 mg/kg BW i.v., duration 10-20 min, means ± s.d.",19 ± 1
same,Total Laser Shots to Occlude each Vessel,"corneal neovasculature; 8 mg/kg BW i.v., duration 20-30 min, means ± s.d.",30 ± 4
same,Total Laser Shots to Occlude each Vessel,"corneal neovasculature; 8 mg/kg BW i.v., duration 30-40 min, means ± s.d.",51 ± 7
same,Total Laser Shots to Occlude each Vessel,"corneal neovasculature; 8 mg/kg BW i.v., duration 40-50 min, means ± s.d.",65 ± 6
same,Total Laser Shots to Occlude each Vessel,"corneal neovasculature; 8 mg/kg BW i.v., duration 50-60 min, means ± s.d.",85 ± 10
same,shots per target vessel required for occlusion,corneal neovasculature; 8 mg/kg bw or higher,< 20 shots
same,Total Laser Shots to Occlude each Vessel,"corneal neovasculature; 16 mg/kg BW i.v., duration 0-10 min, means ± s.d.",8 ± 3
same,Total Laser Shots to Occlude each Vessel,"corneal neovasculature; 16 mg/kg BW i.v., duration 10-20 min, means ± s.d.",9 ± 2
same,Total Laser Shots to Occlude each Vessel,"corneal neovasculature; 16 mg/kg BW i.v., duration 20-30 min, means ± s.d.",10 ± 2
same,Total Laser Shots to Occlude each Vessel,"corneal neovasculature; 16 mg/kg BW i.v., duration 30-40 min, means ± s.d.",13 ± 3
same,Total Laser Shots to Occlude each Vessel,"corneal neovasculature; 16 mg/kg BW i.v., duration 40-50 min, means ± s.d.",20 ± 4
same,Total Laser Shots to Occlude each Vessel,"corneal neovasculature; 16 mg/kg BW i.v., duration 50-60 min, means ± s.d.",32 ± 5
same,Total Laser Shots to Occlude each Vessel,"corneal neovasculature; 40 mg/kg BW i.v., duration 0-10 min, means ± s.d.",5 ± 1
same,Total Laser Shots to Occlude each Vessel,"corneal neovasculature; 40 mg/kg BW i.v., duration 10-20 min, means ± s.d.",5 ± 1
same,Total Laser Shots to Occlude each Vessel,"corneal neovasculature; 40 mg/kg BW i.v., duration 20-30 min, means ± s.d.",6 ± 1
same,Total Laser Shots to Occlude each Vessel,"corneal neovasculature; 40 mg/kg BW i.v., duration 30-40 min, means ± s.d.",8 ± 2
same,Total Laser Shots to Occlude each Vessel,"corneal neovasculature; 40 mg/kg BW i.v., duration 40-50 min, means ± s.d.",10 ± 3
same,Total Laser Shots to Occlude each Vessel,"corneal neovasculature; 40 mg/kg BW i.v., duration 50-60 min, means ± s.d.",15 ± 4
same,corneal fluorescein angiography,corneal neovasculature; after photothrombosis,completely occluded without any dye leakage
same,recanalization / new vessel formation,corneal neovasculature; four-month study period,without recanalization or stimulation of new vessel formation elsewhere
same,involution of occluded corneal vessels,corneal neovasculature; one week after irradiation,gradually involuted
same,conjunctival side effect,"corneal neovasculature; rabbit, in vivo, 40 mg/kg",edematous and slightly pinkish in color
same,Factor VIII in photoinduced MCA thrombi,Factor VIII,abundance
same,"external examination, discoloration",[1],slightly pinkish discoloration of the mucosal surfaces
same,lethargy or change of appetite,[1],Neither lethargy nor change of appetite was noted
same,blood chemistry overall,[1]; 40 mg/kg,within the normal range except for a small number in the group that received the highest dosage
same,long-term systemic toxicity,[1]; iv,does not result in long-term systemic toxicity
same,half-life in blood,[2],three
same,disappearance through the feces,[3],3 days
